Source: patent publication US12343337B2, “Compounds for increasing neural plasticity” (THE REGENTS OF THE UNIVERSITY OF CALIFORNIA, priority 2016, dated 2025)

How the values were obtained:
[1] = tested on: cultured embryonic rat cortical neurons; experiment: Neuritogenesis experiments (Sholl analysis) in cortical cultures; assay type: cell-based; details: for promoting neuritogenesis: cultured embryonic rat cortical neurons, DIV6, 10 μM (0.1% DMSO) unless noted otherwise, 72 h treatment, FIGS. 1B-1D, 2B-2D
Description: (§1) Primary cortical cultures were prepared using tissue from embryonic day 18 (E18) Sprague Dawley rats. Cells were plated at various densities on poly-D-lysine coated plates depending on the specific experiment (vide infra). Plating media consisted of 10% heat-inactivated FBS (Life Technologies), 1% penicillin-streptomycin (Life Technologies), and 0.5 mM glutamine (Life Technologies) in Neurobasal (Life Technologies). After 15-24 h, the media was removed and exchanged for replacement media containing 1×B27 supplement (Life Technologies), 1% penicillin-streptomycin, 0.5 mM glutamine, 12.5 μM glutamate, and Neurobasal. After 96 h, 50% of the media was removed and replaced with feed media containing 1×B27 supplement, 1% penicillin-streptomycin, and 0.5 mM glutamine. Once per week until the cultures had reached sufficient maturity for experiments, 50% of the culture media was removed and replaced with feed media, with an additional 20% by volume being added to account for evaporation. For experiments using antagonists/inhibitors, cells were pretreated with ANA-12 (10 μM), rapamycin (100 nM), and ketanserin (100 μM) for 10 min prior to the addition of test compounds. The final DMSO concentration of these experiments was 0.2%. The neurons used in each cellular experiment were taken from at least two different treatment wells and the wells were randomized to account for plate effects. All of the cellular experiments were replicated on at least two occasions by two or more experimenters.
All compounds were dissolved in DMSO and diluted 1:1000 with the exception that BDNF was dissolved in water. Cells were treated with the compound at a final concentration of 90 μM (0.1% DMSO) while all other compounds were treated at 10 μM (0.1% DMSO) unless noted otherwise. For in vivo studies, the compound was dissolved in sterile 0.9% saline and administered intraperitoneally at a dose of 10 mg/kg and an injection volume of 10 mL/kg.
After 3 days in vitro (DIV 3), approximately 50,000 cells/well in poly-D-lysine coated 24 well plates were treated. Treatment was accomplished by first diluting DMSO stock solutions of compounds 1:10 in Neurobasal followed by a 1:100 dilution into each well (total dilution=1:1000). After 72 h, cells were fixed by removing 80% of the media and replacing it with a volume of 4% aqueous paraformaldehyde (Alfa Aesar) equal to 50% of the working volume of the well. Then, the cells were allowed to sit for 20 min at room temperature before the fixative was aspirated and each well washed twice with DPBS. Cells were permeabilized using 0.2% Triton X-100 (ThermoFisher) in DPBS for 20 minutes at room temperature without shaking. Plates were blocked with antibody diluting buffer (ADB) containing 2% bovine serum albumin (BSA) in DPBS for 1 h at room temperature. Then, plates were incubated overnight at 4° C. with gentle shaking in ADB and a chicken anti-MAP2 antibody (1:10,000; EnCor, CPCA-MAP2). The next day, plates were washed three times with DPBS and once with 2% ADB in DPBS. Plates were incubated for 1 h at room temperature in ADB containing an anti-chicken IgG secondary antibody conjugated to Alexa Fluor 488 (Life Technologies, 1:500) and washed five times with DPBS. After the final wash, 500 μL of DPBS was added per well and imaged on a Leica inverted epifluorescence microscope at 40× magnification. Images were analyzed using the Simple Neurite Tracer and Sholl analysis plug-ins for ImageJ Fiji (version 1.51N). All images were taken and analyzed by an experimenter blinded to treatment conditions.

BDNF = BDNF ELISA assay in cortical neurons; assay type: cell-based, rat
Description: as §1
Cortical cultures were grown in 6-well plates (600,000 cells per well). At DIV 17-18, all media was removed and replaced with fresh Neurobasal. After 4 h, each well was treated with compound dissolved in DMSO (1:1000) for 24 h. After the treatment period, the media was removed and the cells washed once with ice-cold DPBS. To each well was added 200 μL of Cell Extraction Buffer (Life Technologies) supplemented with cOmplete and PhoSTOP inhibitors, and incubated on ice for 5-10 min. Plates were scrapped and the contents collected. […]

[2] = tested on: cultured embryonic rat cortical neurons; experiment: Spinogenesis experiments (spine density) in cortical cultures; assay type: cell-based; details: cortical cultures treated for 24 h at DIV 18; FIG. 1E and FIG. 2E
Description: as §1, with “The final DMSO concentration of these experiments was 0.2%. The neurons used in each cellular experiment were taken from at least two different treatment wells and the wells were randomized to account for plate effects. All of the cellular experiments were replicated on at least two occasions by two or more experimenters.” left out
Cells were plated at a density of 35,000 cells/well on glass coverslips in 24 well plates. […] Dendritic spines were counted manually by a trained experimenter who was blinded to the treatment conditions.

| Molecule | promoting neuritogenesis [1] | spinogenesis in cortical cultures [2] | further results |
| --- | --- | --- | --- |
| CN(C)CCc1c[nH]c2cc(F)ccc12 [6-fluoro-DMT, 6-fluoro-N,N-dimethyltryptamine] | capable of robustly promoting neuritogenesis | – | – |
| COc1ccc2c(CCN(C)C)c[nH]c2c1 [6-methoxy-DMT, 6-methoxy-N,N-dimethyltryptamine] | capable of robustly promoting neuritogenesis | – | – |
| CCN(CC)C(=O)N[C@H]1C=C2c3cccc4[nH]cc(c34)C[C@H]2N(C)C1 [lisuride, Lisuride] | capable of robustly promoting neuritogenesis | increased spinogenesis | dose-response of effects on neurite outgrowth ([1]; cortical cultures, dose response was not clearly observed, FIGS. 3A and 3B): exhibiting activity across 8-orders of magnitude into the femtomolar range; BDNF protein levels in the presence of TrkB antagonist ANA-12 (BDNF; cortical cultures, 24 h treatment, with ANA-12, FIG. 6): negates the increase in BDNF protein levels; protein levels of BDNF protein (BDNF; cortical neurons, after 24 hours treatment, ELISA, FIG. 5): increased the protein levels of BDNF protein; translation of BDNF on co-treatment with sigma antagonist BD1063 (BDNF; cultured cortical neurons co-treated with BD1063, 24 hour treatment, FIG. 7): completely blocked the increased translation of BDNF |
| CN(C)CCc1c[nH]c2ccc(Cn3cncn3)cc12 [rizatriptan, Rizatriptan] | capable of robustly promoting neuritogenesis | increased spinogenesis | – |
| BDNF: brain-derived neurotrophic factor, recombinant neurotrophin, Sigma-Aldrich (protein, UniProt P23560 19-247, looked up) Neurotrophic factor BDNF …: APMKEANIRGQGGLAYPGVRTHGTLESVNGPKAGSRGLTSLADTFEHVIEELLDEDQKVRPNEENNKDADLYTSRVMLSSQVPLEPPLLFLLEEYKNYLDAANMSMRVRRHSDPARRGELSVCDSISEWVTAADKKTAVDMSGGTVTVLEKVPVSKGQLKQYFYETKCNPMGYTKEGCRGIDKRHWNSQCRTTQSYVRALTMDSKKRIGWRFIRIDTSCVCTLTIKRGR | – | – | dose response of effects on dendritic arbor complexity ([1]; recombinant BDNF 50 ng/mL vs 100-fold dilution, FIG. 4): significantly less potent following a 100-fold dilution |
